Laboratory results taken from PubChem BioAssay AID602484 (Southern Research Specialized Biocontainment Screening …, 2012).

Test system: VEEV TrD infected cells, CPE inhibition
Test: VEEV Trinidad donkey strain, infected cells, CPE inhibition, confirmatory IC50 (AID 602484)

Going from `CN(C(=O)Cc1cccs1)c1nc2c(s1)CCCC2` to `CN1CCN(Cc2nc3ccc([N+](=O)[O-])cc3c(=O)n2-c2ccccc2F)CC1`, the IC50 falls from 2030 nM to 270 nM (7.5-fold). The second is the more potent here.

In the case of `CCN1CCN(Cc2nc3ccc([N+](=O)[O-])cc3c(=O)n2-c2ccccc2F)CC1`, the IC50 is reported as 370 nM.
